Source: ChEMBL document CHEMBL4364251, “Design, synthesis and biological evaluation of new quinoline derivatives as potential antitumor agents” (Eur J Med Chem, 2019)

What was measured:
Format in all cases: functional, cell-based
HCT-116 = experiment: Antiproliferative activity against human HCT116 cells incubated for 48 hrs by MTT assay; conditions: HCT-116, 48 h
RKO = experiment: Antiproliferative activity against human RKO cells incubated for 48 hrs by MTT assay
A2780 = experiment: Antiproliferative activity against human A2780 cells incubated for 48 hrs by MTT assay; conditions: A2780, 48 h
HeLa = experiment: Antiproliferative activity against human HeLa cells incubated for 48 hrs by MTT assay
BGC-823 = experiment: Antiproliferative activity against human BGC823 cells incubated for 48 hrs by MTT assay; conditions: BGC-823, 48 h
A549 = experiment: Antiproliferative activity against human A549 cells incubated for 48 hrs by MTT assay; conditions: A549, 48 h
NCI-H1650 = experiment: Antiproliferative activity against human NCI-H1650 cells incubated for 48 hrs by MTT assay; conditions: NCI-H1650, 48 h

Row | IC50 (HCT-116) [µM] | IC50 (A2780) [µM] | IC50 (HeLa) [µM] | IC50 (BGC-823) [µM] | IC50 (A549) [µM] | IC50 (NCI-H1650) [µM] | Structure (SMILES) | IC50 (RKO) [µM]
1 | > 10 | > 10 | > 10 | > 10 | > 10 | > 10 | Fc1cccc(Nc2ccnc3cc(Br)ccc23)c1 | > 10
2 | > 10 | 9.55 | 0.41 | > 10 | > 10 | > 10 | CCOc1ccc2c(Nc3cccc(OC)c3)ccnc2c1 | > 10
3 | > 10 | > 10 | > 10 | > 10 | > 10 | > 10 | COc1ccc2c(Nc3cccc(Br)c3)ccnc2c1 | > 10
4 | > 10 | > 10 | > 10 | > 10 | > 10 | > 10 | Clc1cccc(Nc2ccnc3cc(Br)ccc23)c1 | > 10
5 | > 10 | > 10 | > 10 | > 10 | > 10 | > 10 | COc1ccc2c(Nc3cccc(F)c3)ccnc2c1 | > 10
6 | > 10 | > 10 | > 10 | > 10 | > 10 | > 10 | COc1cccc(Nc2ccnc3cc(F)ccc23)c1 | > 10
7 | > 10 | > 10 | > 10 | > 10 | > 10 | > 10 | Fc1cccc(Nc2ccnc3cc(OCc4ccccc4)ccc23)c1 | > 10
8 | > 10 | > 10 | > 10 | > 10 | > 10 | > 10 | Fc1ccc2c(Nc3cccc(Br)c3)ccnc2c1 | > 10
9 | > 10 | > 10 | > 10 | > 10 | > 10 | > 10 | O=[N+]([O-])c1cccc(Nc2ccnc3cc(Br)ccc23)c1 | > 10
10 | 9.3 | 9.75 | 4.3 | 5.96 | 9.52 | 9.45 | CCCCCCCCOc1ccc2c(Nc3cccc(F)c3)ccnc2c1 | 9.54
11 | > 10 | > 10 | > 10 | > 10 | > 10 | > 10 | CCCCCCCCOc1ccc2c(Nc3cccc([N+](=O)[O-])c3)ccnc2c1 | > 10
12 | > 10 | > 10 | 0.84 | > 10 | > 10 | > 10 | CCCCOc1ccc2c(Nc3cccc(Br)c3)ccnc2c1 | > 10
13 | > 10 | > 10 | > 10 | > 10 | > 10 | > 10 | COc1cccc(Nc2ccnc3cc(OCc4ccccc4)ccc23)c1 | > 10
14 | > 10 | 6.77 | 0.22 | 3.83 | > 10 | > 10 | C=CCOc1ccc2c(Nc3cccc([N+](=O)[O-])c3)ccnc2c1 | > 10
15 | > 10 | > 10 | 0.68 | 9.85 | > 10 | > 10 | CCOc1ccc2c(Nc3cccc(F)c3)ccnc2c1 | > 10
16 | > 10 | > 10 | > 10 | > 10 | > 10 | > 10 | Fc1ccc2c(Nc3cccc(Cl)c3)ccnc2c1 | > 10
17 | 8.76 | 9.19 | 5.39 | 8.13 | 9.49 | 9.54 | O=[N+]([O-])c1cccc(Nc2ccnc3cc(OCc4ccccc4)ccc23)c1 | 9.68
18 | > 10 | > 10 | > 10 | 7.45 | > 10 | > 10 | COc1ccc2c(Nc3cccc([N+](=O)[O-])c3)ccnc2c1 | > 10
19 | > 10 | 1.19 | 0.31 | > 10 | > 10 | > 10 | C=CCOc1ccc2c(Nc3cccc(F)c3)ccnc2c1 | > 10
20 | > 10 | 4.62 | 0.25 | > 10 | > 10 | > 10 | Fc1cccc(Nc2ccnc3cc(OCCCc4ccccc4)ccc23)c1 | > 10
21 | 7.46 | 4.46 | 4.13 | 8.32 | 5.09 | 6.01 | O=[N+]([O-])c1cccc(Nc2ccnc3cc(OCCCc4ccccc4)ccc23)c1 | 8.29
22 | > 10 | > 10 | > 10 | > 10 | > 10 | > 10 | COc1cccc(Nc2ccnc3cc(Br)ccc23)c1 | > 10

Row | IC50 (HCT-116) [µM] | IC50 (A2780) [µM] | IC50 (HeLa) [µM] | IC50 (BGC-823) [µM] | IC50 (A549) [µM] | IC50 (NCI-H1650) [µM] | Structure (SMILES) | IC50 (RKO) [µM]
23 | > 10 | 0.65 | 0.23 | 4.73 | > 10 | > 10 | COc1cccc(Nc2ccnc3cc(OC(C)C)ccc23)c1 | > 10
24 | 8.17 | 6.51 | 5.79 | 9.45 | 7.3 | 9.35 | O=[N+]([O-])c1cccc(Nc2ccnc3cc(OCc4ccc(F)cc4)ccc23)c1 | 8.7
25 | 7.68 | 8.87 | 6.56 | 7.26 | > 10 | 8.69 | CCCCOc1ccc2c(Nc3cccc(OC)c3)ccnc2c1 | 8.1
26 | > 10 | > 10 | > 10 | > 10 | > 10 | > 10 | O=[N+]([O-])c1cccc(Nc2ccnc3cc(Cl)ccc23)c1 | > 10
27 | 6.83 | 5.17 | 4.35 | 6.11 | > 10 | 9.56 | CCCCOc1ccc2c(Nc3cccc([N+](=O)[O-])c3)ccnc2c1 | 7.81
28 | > 10 | > 10 | 3.42 | > 10 | > 10 | > 10 | CCOc1ccc2c(Nc3cccc([N+](=O)[O-])c3)ccnc2c1 | > 10
29 | > 10 | > 10 | > 10 | > 10 | > 10 | > 10 | Fc1cccc(Nc2ccnc3cc(F)ccc23)c1 | > 10
30 | > 10 | > 10 | > 10 | > 10 | > 10 | > 10 | Fc1ccc(COc2ccc3c(Nc4cccc(F)c4)ccnc3c2)cc1 | > 10
31 | > 10 | 8.2 | 1.43 | 9.42 | > 10 | > 10 | CCCCOc1ccc2c(Nc3cccc(F)c3)ccnc2c1 | > 10
32 | > 10 | > 10 | > 10 | > 10 | > 10 | > 10 | O=[N+]([O-])c1cccc(Nc2ccnc3cc(F)ccc23)c1 | > 10
33 | > 10 | > 10 | > 10 | > 10 | > 10 | > 10 | Fc1cccc(Nc2ccnc3cc(Cl)ccc23)c1 | > 10
34 | > 10 | > 10 | > 10 | > 10 | > 10 | > 10 | COc1cccc(Nc2ccnc3cc(OC)ccc23)c1 | > 10
35 | > 10 | > 10 | > 10 | > 10 | > 10 | > 10 | COc1ccc2c(Nc3cccc(O)c3)ccnc2c1 | > 10
36 | > 10 | > 10 | > 10 | > 10 | > 10 | > 10 | COc1cccc(Nc2ccnc3cc(Cl)ccc23)c1 | > 10
37 | > 10 | 0.59 | 0.2 | > 10 | > 10 | > 10 | CC(C)Oc1ccc2c(Nc3cccc(F)c3)ccnc2c1 | > 10
38 | > 10 | > 10 | > 10 | > 10 | > 10 | > 10 | COc1ccc2c(Nc3ccc(Cl)c(Cl)c3)ccnc2c1 | > 10
39 | > 10 | > 10 | > 10 | > 10 | > 10 | > 10 | Brc1cccc(Nc2ccnc3cc(Br)ccc23)c1 | > 10
40 | > 10 | 1.47 | 0.52 | 8.39 | > 10 | > 10 | CC(C)Oc1ccc2c(Nc3cccc([N+](=O)[O-])c3)ccnc2c1 | > 10
41 | > 10 | > 10 | > 10 | > 10 | > 10 | > 10 | COc1cccc(Nc2ccnc3cc(OCc4ccc(F)cc4)ccc23)c1 | > 10
42 | > 10 | 8.21 | 7.72 | > 10 | > 10 | 8.13 | CCCCCCCCOc1ccc2c(Nc3cccc(OC)c3)ccnc2c1 | > 10
43 | > 10 | 8.06 | 2.2 | 6.65 | > 10 | > 10 | C=CCOc1ccc2c(Nc3cccc(OC)c3)ccnc2c1 | > 10
